Laboratory results reported in patent US5962451A, “Benzodiazepin derivatives useful as CCK-receptor antagonists” (Ferring BV, priority 1992, dated 1999).

Tests used:
CCK-B receptor = target: T1, CCK-B receptor (Rattus norvegicus, UniProt P30553); assay: Measurement of Binding Affinity for CCK-B Receptors ([125I]BH-CCK-8 displacement, rat brain membranes); conditions: SD rat brain membranes, [125I]BH-CCK-8, 25° C., 120 min, pH 6.5
T1 construct: the whole brain was immediately excised from each of the rats and homogenized; from tissue; host or cells: SD rat whole brain, membrane preparation
T1 sequence (P30553 whole entry): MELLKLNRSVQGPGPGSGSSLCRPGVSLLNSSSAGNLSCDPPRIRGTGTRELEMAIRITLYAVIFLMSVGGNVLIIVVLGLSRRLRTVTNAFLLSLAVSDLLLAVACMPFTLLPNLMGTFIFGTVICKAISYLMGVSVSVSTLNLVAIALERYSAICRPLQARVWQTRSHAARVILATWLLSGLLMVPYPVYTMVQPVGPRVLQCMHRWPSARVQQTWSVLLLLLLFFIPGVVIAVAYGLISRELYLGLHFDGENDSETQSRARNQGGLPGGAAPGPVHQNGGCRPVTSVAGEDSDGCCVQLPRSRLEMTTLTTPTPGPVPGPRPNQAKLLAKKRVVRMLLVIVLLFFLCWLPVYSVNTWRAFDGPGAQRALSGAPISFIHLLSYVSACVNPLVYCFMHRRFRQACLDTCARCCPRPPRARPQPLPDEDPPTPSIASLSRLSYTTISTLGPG
Experimental: Measurement of Binding Affinity for CCK-B Receptors
About 100 SD rats were decapitated without anaesthesia, the whole brain was immediately excised from each of the rats and homogenized in 10-fold volume of 0.32 M aqueous solution of sucrose by the use of a Teflon-coatedhomogenizer, the homogenate thus obtained was centrifuged for ten minutes at 900 g by the use of a cooled centrifuge, and the supernatant was further centrifuged for 15 minutes at 11500 g. The precipitate thus obtained was dispersed in 50 mM Tris-HCl buffer (pH 7.4) containing 0.08% Triton X-100, this suspension was allowed to stand for 30 minutes and again centrifuged for 15 minutes at 11500 g, the precipitate thus obtained was washed twice with 5 mM Tris-HCl buffer and twice with 50 mM Tris-HCl buffer in that order with centrifugal separation, the washed precipitate was suspended in 50 mM Tris-HCl buffer, and the suspension thus obtained was stored at -80° C. until the membrane preparation was required.
The membrane preparations were warmed to room temperature, diluted with 10 mM HEPES buffer (containing 130 mM NaCl, 5 mM MgCl2, 1 mM EGTA and 0.25 mg/ml bacitracin; pH 6.5) and incubated at 25° C. for 120 minutes in the presence of [^125 I]BH-CCK-8 and the test compound, then separated by suction filtration. Non-specific binding was determined in the presence of 1 μM CCK-8. The amount of labelled ligand bound to the receptor was measured by the use of a γ-counter; IC50 values were determined, being that concentration of test compound required to inhibit specific binding by 50%.
(§1) A high affinity for the CCK-A receptor in a gastrin/CCK-B antagonist is thought to be undesirable as it may lead to side-effects such as cholestasis and gall stone formation during therapy. Therefore it is preferable for the therapeutic agent to be selective for the CCK-B receptor. This selectivity is expressed by the ratio IC50. (CCK-A)/IC50 (CCK-B); the higher the value of this ratio the better is the selectivity.
The table below summarises CCK-B and CCK-A binding data for examples of preferred compounds, as well as the A/B ratio. Many compounds display a marked increase in CCK-B receptor binding affinity when compared to the compound of Example 281 of U.S. Pat. No. 4,820,834 (also known as L-365,260). Several compounds also show much greater selectivity for the CCK-B receptor over the CCK-A receptor than that reported for the compound of Example 281 of U.S. Pat. No.

CCK-A receptor = target: T2, CCK-A receptor (Rattus norvegicus, UniProt P30551); assay: Measurement of Binding Affinity for CCK-A Receptors ([3H]L-364,718 displacement, rat pancreas membranes); conditions: SD rat pancreas membranes, [3H]L-364,718, 37° C., 30 min
T2 construct: The pancreas of an SD rat was homogenized; from tissue; host or cells: SD rat pancreas, membrane preparation
T2 sequence (P30551 1-444): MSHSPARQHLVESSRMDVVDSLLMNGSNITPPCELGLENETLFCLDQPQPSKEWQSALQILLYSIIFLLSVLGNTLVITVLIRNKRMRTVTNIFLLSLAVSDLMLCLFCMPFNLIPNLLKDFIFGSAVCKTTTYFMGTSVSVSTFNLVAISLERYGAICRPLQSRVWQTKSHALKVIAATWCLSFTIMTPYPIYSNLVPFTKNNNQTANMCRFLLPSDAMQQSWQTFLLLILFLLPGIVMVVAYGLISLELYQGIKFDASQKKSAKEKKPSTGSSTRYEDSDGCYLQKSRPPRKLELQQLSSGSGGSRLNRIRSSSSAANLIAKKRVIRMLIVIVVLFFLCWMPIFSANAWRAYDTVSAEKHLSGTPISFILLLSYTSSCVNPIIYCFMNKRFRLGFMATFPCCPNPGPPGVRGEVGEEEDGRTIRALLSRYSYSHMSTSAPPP
Experimental: Measurement of Binding Affinity for CCK-A Receptors
The pancreas of an SD rat was homogenized in a 20-fold volume of 50 mM Tris-HCl buffer (pH 7.7) by the use of a Polytrone-type homogenizer, the homogenate was twice centrifuged for 10 minutes at 50000 g by the use of an ultra-centrifuge, the precipitate thus obtained was suspended in a 40-fold volume of 50 mM Tris-HCl buffer (containing 0.2% BSA, 5 mM MgCl2, 0.1 mg/ml bacitracin and 5 mM DTT; pH 7.7), and the suspension was stored at -80° C. until the membrane preparations were required.
The membrane preparations were then warmed to room temperature, diluted 1:10 with the buffer and incubated at 37° C. for 30 minutes in the presence of [^3 H]L-364,718 and the test compound then separated by suction filtration. Non-specific binding was determined in the presence of 1 μM L-364,718. The amount of labelled ligand bound to the receptor was measured by the use of a liquid scintillation counter; IC50 values were determined, being that concentration of test compound required to inhibit specific binding by 50%.
as §1, with “(CCK-A)/IC50 (CCK-B); the higher the value of this ratio the better is the selectivity.” left out

[1] = test system: Pentagastrin-stimulated gastric acid secretion; assay: Measurement of Inhibition of Pentagastrin-stimulated Gastric Acid Secretion in dog (Heidenhain pouch); type: in vivo, male beagle dog; conditions: beagle dog, oral, pentagastrin 8 μg/kg/hr, mean for 3-5 animals
Experimental: Measurement of Inhibition of Pentagastrin-stimulated Gastric Acid Secretion in doc
Assays were performed using male beagle dogs (7-12 kg) two months after surgical preparation of Heidenhain pouches following the conventional procedure. Each dog was used only once per week.
The animals were deprived of food with free access to water for 18 hr prior to the experiment. The gastric juice was collected from the gastric cannula by gravity drainage every 15 min, and acid output was determined by automatic titration with 0.05 N NaOH to pH 7.0 (Comtite-7, Hiranuma, Tokyo, Japan). Drugs were administered orally 3 hr after the start of the pentagastrin (8 μg/kg/hr) infusion. The effect of each drug was calculated as the percentage inhibition of stimulated acid output. […] Each result is a mean for 3-5 animals.

SMILES: Cc1cccc(NC(=O)NC2N=C(c3ccccc3)c3ccccc3N(CC(=O)C3CCCC3)C2=O)c1 (racemic) [Example 4, N-((3RS)-1-Cyclopentylcarbonylmethyl-2,3-dihydro-2-oxo-5-phenyl-1H-1,4-benzodiazepin-3-yl)-N'-(3-methylphenyl) urea]
- IC50 (CCK-B receptor): 0.23 nM

SMILES: Cc1cccc(NC(=O)NC2N=C(c3ccccn3)c3ccccc3N(CC(=O)C3CCCC3)C2=O)c1 (racemic) [Example 14, N-((3RS)-1-Cyclopentylcarbonylmethyl-2,3-dihydro-2-oxo-5-(2-pyridyl)-1H-1,4-benzodiazepin-3-yl)-N'-(3-methylphenyl)urea]
- IC50 (CCK-B receptor): 0.12 nM
- IC50 (CCK-A receptor): 2600 nM

SMILES: Cc1cccc(NC(=O)NC2N=C(c3ccccn3)c3ccccc3N(CC(=O)C(C)(C)C)C2=O)c1 (racemic) [Example 27, N-((3RS)-1-tert-Butylcarbonylmethyl-2,3-dihydro-2-oxo-5-(2-pyridyl)-1H-1,4-benzodiazepin-3-yl)-N'-(3-methylphenyl) urea]
- maximum inhibition of stimulated acid output ([1]; 3 μmol/kg): 66%

SMILES: Cc1cccc(NC(=O)NC2N=C(c3ccccc3)c3ccccc3N(CC(=O)CC3CCCCC3)C2=O)c1 (racemic) [Example 32, N-((3RS)-1-Cyclohexylmethylcarbonylmethyl-2,3-dihydro-2-oxo-5-phenyl-1H-1,4-benzodiazepin-3-yl)-N'-(3-methylphenyl) urea]
- IC50 (CCK-B receptor): 0.28 nM

SMILES: Cc1cccc(NC(=O)NC2N=C(c3ccccc3)c3ccccc3N(CC(=O)C3(C)CCCCC3)C2=O)c1 (racemic) [Example 34, N-((3RS)-1-((1-Methylcyclohexyl)carbonylmethyl)-2,3-dihydro-2-oxo-5-phenyl-1H-1,4-benzodiazepin-3-yl)-N'-(3-methylphenyl) urea]
- IC50 (CCK-B receptor): 0.38 nM

SMILES: CN(C)c1cccc(NC(=O)NC2N=C(c3ccccn3)c3ccccc3N(CC(=O)C(C)(C)C)C2=O)c1 (racemic) [Example 38, N-((3RS)-1-tert-Butylcarbonylmethyl-2,3-dihydro-2-oxo-5-(2-pyridyl)-1H-1,4-benzodiazepin-3-yl)-N'-(3-dimethylaminophenyl) urea]
- maximum inhibition of stimulated acid output ([1]; 3 μmol/kg): 100%

SMILES: Cc1cccc(NC(=O)N[C@@H]2N=C(c3ccccc3)c3ccccc3N(CC(=O)C(C)(C)C)C2=O)c1 [Example 26, N-((3R)-1-tert-Butylcarbonylmethyl-2,3-dihydro-2-oxo-5-phenyl-1H-1,4-benzodiazepin-3-yl)-N'-(3-methylphenyl) urea]
- maximum inhibition of stimulated acid output ([1]; 3 μmol/kg): 53%

SMILES: CN(C)c1cccc(NC(=O)N[C@@H]2N=C(c3ccccc3)c3ccccc3N(CC(=O)C(C)(C)C)C2=O)c1 [Example 64, N-((3R)-1-tert-Butylcarbonylmethyl-2,3-dihydro-2-oxo-5-phenyl-1H-1,4-benzodiazepin-3-yl)-N'-(3-dimethylaminophenyl) urea]
- maximum inhibition of stimulated acid output ([1]; 3 μmol/kg): 100%

SMILES: Cc1cccc(NC(=O)N[C@@H]2N=C(c3ccccc3)c3ccccc3N(C)C2=O)c1 [reference compound]
- maximum inhibition of stimulated acid output ([1]; 100 μmol/kg): 0%
